Experiments:
[1] = tested on: N87 gastric cancer; assay: In vivo antitumor efficacy in an N87 gastric cancer mouse model (drug of Example 1); parameters: species or system mouse (BALB/c nude); settings: 0.06mg i.v. (tail vein) twice per week for 5 weeks
Method: (1)..Cell culture: Tumor cells were cultured in RPMI-1640 medium supplemented with heat-inactivated 10% fetal bovine serum, 100 U/mL penicillin, 100 µg/mL streptomycin, and 2 mM L-glutamine, in a humidified incubator at 37 °C with 5% CO2.Subculture was performed every 3-4 days after confluence; tumor cells in logarithmic growth phase were used for in vivo inoculation. (2).Tumor cell inoculation and grouping: Tumor cells (1 × 10^7) resuspended in PBS: Matrigel were inoculated subcutaneously into the right flank of each mouse.When tumors reached approximately 80-100 mm^3, animals were randomized into groups for dosing. […] (3).Dosing Regimen: Table 22
The dosing volume is 200 µL per 20 g mouse, with the administered dose calculated on a body-weight basis; the observation period is 60 days, adjustable according to the condition of the animals and tumor status.
• a. Tumor volume: Measured twice weekly using vernier calipers. The long and short diameters were recorded; tumor volume was calculated as: Volume = 0.5 × length × (width)^2. • b. Post-administration reactions in animals: At each tumor-measurement time point, body weight was recorded.Changes in body weight relative to dosing time were documented.Survival and general health (e.g., activity, feeding) were monitored throughout the dosing period. • c. Tumor excision, weighing, and photography: at the end of the study, mice were euthanized; tumors were excised, photographed and collected; specimens were fixed or snap-frozen as required. • a) Photograph each animal post-euthanasia with tumor in situ; • b) Dissect and weigh each subcutaneous tumor; • c) Arrange all tumors on a white board according to group codes and photograph; then bisect longitudinally, realign by group code, and photograph again. • d) Tumors were snap-frozen or formalin-fixed per requirements. • d.
• a. […] Inhibition Rate of Tumor Weight (IRTW, %) IRTW (%) = (Wcontrol group−Wtreatment group)/Wcontrol group × 100, [formula] where W is tumor weight.IRTW > 60% is considered effective.

[2] = Body weight in the N87 study of the Example 1 drug; type: in vivo, mouse (BALB/c nude); settings: 0.06mg i.v. (tail vein) twice per week for 5 weeks
[3] = Body weight in the N87 study of the Example 5 drug; type: in vivo, mouse (BALB/c nude); settings: 0.12mg i.v. (tail vein) once every 5 days, 5 administrations
Method: Body weight is measured three times per week.Data are recorded and changes analyzed.

[4] = tested on: A549 lung carcinoma; assay: In-vivo efficacy study in the A549 mouse lung carcinoma model (drug of Example 3); parameters: species or system mouse (BALB/c-nu)
Method: • Species/strain: BALB/c nude (BALB/c-nu) • Age: 6-7 weeks • Sex: Male • Body weight: 16-18 g
The day of implantation was designated as Day 0 (D0).When the tumor volume reached approximately 100.0 mm^3 (D5), animals with poor tumor take were excluded, the remaining animals were randomized by tumor volume, and dosing commenced on the day of randomization. 2).Dosing regimen: Table 31
(§1) Tumor size is measured twice per week using a vernier caliper. The long diameter (a) and short diameter (b) are recorded. Tumor volume is calculated as: V=0.5×a×b^2.
RTV = Vt /V0 , [formula] where V0 is the tumor volume at grouping/first dosing (D0), and Vt is the tumor volume at each measurement time point.

[5] = tested on: A549 lung carcinoma; assay: In-vivo efficacy study in the A549 mouse lung carcinoma model (drugs of Example 6 and Example 20); parameters: species or system mouse (BALB/cAnSlacNifdc-nu); settings: for Tumor growth inhibition rate (TGI, %) at different days post-inoculation: 0.12mg/20g i.v. (tail vein) once weekly, 3 administrations
Text: • Species/strain: BALB/cAnSlacNifdc-nu • Sex: Male • Body weight: 17-21 g
1).Inoculation and grouping: For the A549 mouse lung carcinoma model, male BALB/cAnSlacNifdc-nu mice weighing 17.0-21.0 g were used. Under aseptic conditions, A549 tumor tissue was excised and cut into 2.0 mm × 2.0 mm × 2.0 mm tumor blocks, which were implanted subcutaneously into the left axillary dorsal region of nude mice. The day of implantation was designated as Day 0 (D0).When the tumor volume reached approximately 150.0 mm^3 (D7), animals were randomized by tumor volume into four groups: A (vehicle control), B, C, and D (drug), with 8 animals per group. On the day of randomization, all groups began intravenous (tail-vein) dosing. Groups A, B, C, and subgroup D1 were dosed once weekly for a total of 3 administrations; subgroup D2 was dosed twice weekly for a total of 6 administrations. 2).Dosing regimen: Table 34
as §1
RTV = Vt /V0 , [formula] where V0 is the tumor volume at grouping/first dosing (D0) and Vt is the tumor volume at each measurement time point.

[6] = Body weight and general condition in the U251 study; type: in vivo, mouse (BALB/c nude); settings: Group 3, around D10 post-dosing; 6mg/Kg i.v. twice weekly; possibly due to drug toxicity
Method: The relationship between body weight change and the dosing regimen is recorded.Survival and health status are also monitored, including activity levels and food intake during the dosing period. • c) Tumor and Organ Imaging: At the end of the dosing period, mice are euthanized, and their brain, heart, liver, spleen, lungs, and kidneys are excised.

[7] = end of the study (D32 or D25), targeted drug: high- and medium-dose
[8] = end of the study (D29), intravenous administration

## COc1cccc2c1C(=O)c1c(O)c3c(c(O)c1C2=O)C[C@@](O)(C(=O)CO)C[C@@H]3O[C@H]1C[C@H](N)[C@@H](O)[C@H](C)O1 [Epirubicin drug substance (API), Epirubicin]
[1]; Day 9
  Tumor Growth Inhibition Rate at Different Days Post-Inoculation (%): 8.44%
[1]; Day 13
  Tumor Growth Inhibition Rate at Different Days Post-Inoculation (%): 0.40%
[1]; Day 17
  Tumor Growth Inhibition Rate at Different Days Post-Inoculation (%): 6.68%
[1]; Day 20
  Tumor Growth Inhibition Rate at Different Days Post-Inoculation (%): 7.83%
[1]; Day 23
  Tumor Growth Inhibition Rate at Different Days Post-Inoculation (%): 12.46%
[1]; Day 27
  Tumor Growth Inhibition Rate at Different Days Post-Inoculation (%): 23.34%
[1]; Day 30
  Tumor Growth Inhibition Rate at Different Days Post-Inoculation (%): 25.87%
[1]; Day 34
  Tumor Growth Inhibition Rate at Different Days Post-Inoculation (%): 31.16%
[1]; Day 37
  Tumor Growth Inhibition Rate at Different Days Post-Inoculation (%): 36.26%
[2]
  Body-weight difference between Day 37 and Day 6: 0.91 g
[3]
  Body-weight difference (g) between Day 23 and Day 5: -3.84 g
[4]; Day 8, 0.08mg i.v. (tail vein) twice weekly for 5 weeks
  Tumor growth inhibition rate (TGI, %) at different days post-inoculation: 19.90%
[4]; Day 8, 0.12mg i.v. (tail vein) twice weekly for 5 weeks
  Tumor growth inhibition rate (TGI, %) at different days post-inoculation: 17.42%
[4]; Day 8, 0.14mg i.v. (tail vein) twice weekly for 5 weeks
  Tumor growth inhibition rate (TGI, %) at different days post-inoculation: 17.47%
[4]; Day 11, 0.08mg i.v. (tail vein) twice weekly for 5 weeks
  Tumor growth inhibition rate (TGI, %) at different days post-inoculation: 17.02%
[4]; Day 11, 0.12mg i.v. (tail vein) twice weekly for 5 weeks
  Tumor growth inhibition rate (TGI, %) at different days post-inoculation: 15.55%
[4]; Day 11, 0.14mg i.v. (tail vein) twice weekly for 5 weeks
  Tumor growth inhibition rate (TGI, %) at different days post-inoculation: 28.43%
[4]; Day 14, 0.08mg i.v. (tail vein) twice weekly for 5 weeks
  Tumor growth inhibition rate (TGI, %) at different days post-inoculation: -12.27%
[4]; Day 14, 0.12mg i.v. (tail vein) twice weekly for 5 weeks
  Tumor growth inhibition rate (TGI, %) at different days post-inoculation: -4.64%
[4]; Day 14, 0.14mg i.v. (tail vein) twice weekly for 5 weeks
  Tumor growth inhibition rate (TGI, %) at different days post-inoculation: 6.41%
[4]; Day 17, 0.08mg i.v. (tail vein) twice weekly for 5 weeks
  Tumor growth inhibition rate (TGI, %) at different days post-inoculation: 10.74%
[4]; Day 17, 0.12mg i.v. (tail vein) twice weekly for 5 weeks
  Tumor growth inhibition rate (TGI, %) at different days post-inoculation: 28.37%
[4]; Day 17, 0.14mg i.v. (tail vein) twice weekly for 5 weeks
  Tumor growth inhibition rate (TGI, %) at different days post-inoculation: 31.81%
[4]; Day 22, 0.08mg i.v. (tail vein) twice weekly for 5 weeks
  Tumor growth inhibition rate (TGI, %) at different days post-inoculation: 10.11%
[4]; Day 22, 0.12mg i.v. (tail vein) twice weekly for 5 weeks
  Tumor growth inhibition rate (TGI, %) at different days post-inoculation: 8.93%
[4]; Day 22, 0.14mg i.v. (tail vein) twice weekly for 5 weeks
  Tumor growth inhibition rate (TGI, %) at different days post-inoculation: 12.37%
[4]; Day 25, 0.12mg i.v. (tail vein) twice weekly for 5 weeks
  Tumor growth inhibition rate (TGI, %) at different days post-inoculation: 41.13%
[4]; Day 25, 0.14mg i.v. (tail vein) twice weekly for 5 weeks
  Tumor growth inhibition rate (TGI, %) at different days post-inoculation: 44.37%
[4]; Day 29, 0.08mg i.v. (tail vein) twice weekly for 5 weeks
  Tumor growth inhibition rate (TGI, %) at different days post-inoculation: 2.07%
[4]; Day 29, 0.12mg i.v. (tail vein) twice weekly for 5 weeks
  Tumor growth inhibition rate (TGI, %) at different days post-inoculation: 34.27%
[4]; Day 29, 0.14mg i.v. (tail vein) twice weekly for 5 weeks
  Tumor growth inhibition rate (TGI, %) at different days post-inoculation: 31.80%
[4]; Day 32, 0.08mg i.v. (tail vein) twice weekly for 5 weeks
  Tumor growth inhibition rate (TGI, %) at different days post-inoculation: 13.19%
[4]; Day 32, 0.12mg i.v. (tail vein) twice weekly for 5 weeks
  Tumor growth inhibition rate (TGI, %) at different days post-inoculation: 33.27%
[4]; Day 32, 0.14mg i.v. (tail vein) twice weekly for 5 weeks
  Tumor growth inhibition rate (TGI, %) at different days post-inoculation: 24.63%
[4]; [7]
  T/C: greater than 40%
  tumor growth inhibition rate (calculated on the basis of tumor weight and tumor volume): less than 60%
[5]; Day 11
  Tumor growth inhibition rate (TGI, %) at different days post-inoculation: 27.01%
[5]; Day 14
  Tumor growth inhibition rate (TGI, %) at different days post-inoculation: 45.82%
[5]; Day 18
  Tumor growth inhibition rate (TGI, %) at different days post-inoculation: 43.61%
[5]; Day 21
  Tumor growth inhibition rate (TGI, %) at different days post-inoculation: 44.97%
[5]; Day 25
  Tumor growth inhibition rate (TGI, %) at different days post-inoculation: 46.31%
[5]; Day 29
  Tumor growth inhibition rate (TGI, %) at different days post-inoculation: 49.64%
[5]; [8]
  T/C: greater than 40%
  tumor growth inhibition rate (calculated based on tumor volume): less than 60%
[6]
  body weight of the mice (and spontaneous activity): started to decrease
